The source of these data is PMC9945182 (Chemical Research in Toxicology, 2023).

Read-outs that look alike come from different tables or passages of the source.

One may read the IC50 as the concentration at which inhibition is half-maximal. The term inhibition denotes the change of the read-out against control, counted positive when it falls. A high value points to a response far below the control.

Common to all, as to format: biochemical
Series [1] has as its target T1, CYP2A6 (Homo sapiens, UniProt P11509).
T1 sequence (P11509 1-494): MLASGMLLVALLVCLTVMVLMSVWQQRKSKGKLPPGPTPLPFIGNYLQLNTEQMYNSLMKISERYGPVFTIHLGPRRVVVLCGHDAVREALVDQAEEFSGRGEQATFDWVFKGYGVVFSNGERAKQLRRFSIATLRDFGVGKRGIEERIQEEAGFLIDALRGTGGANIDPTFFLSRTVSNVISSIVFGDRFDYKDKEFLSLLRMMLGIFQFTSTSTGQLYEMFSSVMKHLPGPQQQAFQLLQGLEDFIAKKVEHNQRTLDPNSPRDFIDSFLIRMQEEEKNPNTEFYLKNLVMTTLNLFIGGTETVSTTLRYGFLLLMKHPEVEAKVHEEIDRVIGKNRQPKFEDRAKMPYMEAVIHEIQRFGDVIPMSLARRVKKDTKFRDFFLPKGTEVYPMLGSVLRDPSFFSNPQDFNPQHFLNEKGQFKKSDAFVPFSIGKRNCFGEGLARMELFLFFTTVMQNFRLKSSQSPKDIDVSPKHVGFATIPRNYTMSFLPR
The conditions noted are these: for inhibition of cotinine formation: nicotine substrate, CYP2A6 microsomes, vs 100% activity control; for IC50: nicotine 100 μM, rec CYP2A6 microsomes.

Series [2] deals with T2, CYP2B6 (Homo sapiens, UniProt P20813).
T2 sequence (P20813 1-491): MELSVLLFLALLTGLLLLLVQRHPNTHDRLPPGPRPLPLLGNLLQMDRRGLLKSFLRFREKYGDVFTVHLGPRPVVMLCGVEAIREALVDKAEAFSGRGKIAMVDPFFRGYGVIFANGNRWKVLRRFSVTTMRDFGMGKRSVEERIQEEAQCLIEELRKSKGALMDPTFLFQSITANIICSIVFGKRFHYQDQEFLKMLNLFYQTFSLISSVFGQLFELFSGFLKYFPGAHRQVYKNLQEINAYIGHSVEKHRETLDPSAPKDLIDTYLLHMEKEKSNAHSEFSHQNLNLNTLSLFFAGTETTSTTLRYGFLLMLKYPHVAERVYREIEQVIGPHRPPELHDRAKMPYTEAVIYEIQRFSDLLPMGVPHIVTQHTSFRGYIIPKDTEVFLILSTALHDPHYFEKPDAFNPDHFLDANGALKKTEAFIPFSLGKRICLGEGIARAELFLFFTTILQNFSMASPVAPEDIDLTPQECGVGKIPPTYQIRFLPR
The settings on record: for inhibition of cotinine formation: nicotine substrate, CYP2B6 microsomes.

Series [3] addresses T1, CYP2A6. The settings on record: for decrease of 3HC formation: cotinine substrate, CYP2A6 microsomes; for IC50: cotinine 100 μM, rec CYP2A6 microsomes.
The target in series [4] is T2, CYP2B6. The settings on record: for inhibition of nornicotine formation: nicotine substrate, CYP2B6 microsomes.
Series [5] has as its system human liver microsomes (HLM). The series can be described thus: Inhibition of nicotine to nornicotine formation in pooled human liver microsomes. The conditions noted are these: nicotine 500 μM. Background: Liver microsomes are a subcellular fraction often used to study metabolism.
In another series the target is T3, FMO1 (Homo sapiens, UniProt Q01740).
T3 sequence (Q01740 1-532): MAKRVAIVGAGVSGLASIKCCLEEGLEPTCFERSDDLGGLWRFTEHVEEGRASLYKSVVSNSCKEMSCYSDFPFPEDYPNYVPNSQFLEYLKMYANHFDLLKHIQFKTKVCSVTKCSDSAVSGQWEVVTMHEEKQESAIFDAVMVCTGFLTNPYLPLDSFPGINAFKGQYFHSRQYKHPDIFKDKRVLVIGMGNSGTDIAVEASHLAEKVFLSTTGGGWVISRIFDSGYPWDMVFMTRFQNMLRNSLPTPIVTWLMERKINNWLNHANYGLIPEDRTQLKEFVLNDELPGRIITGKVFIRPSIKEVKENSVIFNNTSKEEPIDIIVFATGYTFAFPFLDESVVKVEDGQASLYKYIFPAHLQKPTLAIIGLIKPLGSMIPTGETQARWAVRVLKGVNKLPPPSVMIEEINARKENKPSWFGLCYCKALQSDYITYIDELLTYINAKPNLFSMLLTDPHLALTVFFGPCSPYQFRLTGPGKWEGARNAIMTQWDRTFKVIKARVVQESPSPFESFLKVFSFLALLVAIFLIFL
The conditions noted are these: 1 or 10 μM cannabinoid; nicotine 1 mM; FMO1 microsomes.

The target of another series is T4, FMO3 (Homo sapiens, UniProt P31513).
T4 sequence (P31513 1-532): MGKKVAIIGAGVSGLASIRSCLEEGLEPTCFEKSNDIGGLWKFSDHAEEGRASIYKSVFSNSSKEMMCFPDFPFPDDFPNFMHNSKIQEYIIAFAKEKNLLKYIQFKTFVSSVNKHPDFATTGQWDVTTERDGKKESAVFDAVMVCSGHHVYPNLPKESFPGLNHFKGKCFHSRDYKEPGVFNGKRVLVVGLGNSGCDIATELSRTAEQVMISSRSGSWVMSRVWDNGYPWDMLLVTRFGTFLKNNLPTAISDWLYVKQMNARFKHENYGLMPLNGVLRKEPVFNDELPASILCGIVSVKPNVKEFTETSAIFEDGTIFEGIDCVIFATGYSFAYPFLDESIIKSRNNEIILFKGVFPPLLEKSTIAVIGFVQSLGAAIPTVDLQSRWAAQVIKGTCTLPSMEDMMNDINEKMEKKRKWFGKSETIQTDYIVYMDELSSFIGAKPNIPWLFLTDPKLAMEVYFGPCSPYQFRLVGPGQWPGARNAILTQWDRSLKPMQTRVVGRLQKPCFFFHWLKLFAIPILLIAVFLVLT
The conditions noted are these: 1 or 10 μM cannabinoid; nicotine 1 mM; FMO3 microsomes.

The mark [6] stands for this setting: human, microsomes from CYP2B6-overexpressing HEK293 cells, pH 7.4, probe nicotine (cotinine formation).
[7] abbreviates: human, microsomes from CYP2B6-overexpressing HEK293 cells, pH 7.4, probe nicotine (nornicotine formation).

With `C=C(C)[C@@H]1CCC(CO)=C[C@H]1c1c(O)cc(CCCCC)cc1O` [7-OH-CBD, 7-hydroxy-cannabidiol], the “inhibition of cotinine formation” value against CYP2A6 [1] (1 μM inhibitor) is 50%; against CYP2A6 [1] (10 μM inhibitor), 75%; against CYP2B6 [2] (1 μM inhibitor), 35%; on CYP2B6 [2] (10 μM inhibitor) it was 50%. Further, the 50% inhibitory concentration (IC50) against CYP2A6 [1] (cotinine formation, mean ± SD of three experiments) worked out at 5800 ± 2300 nM; on CYP2A6 [1] (read-out: IC50,u (binding-corrected IC50), cotinine formation, IC50 × fu,inc) it was 450 ± 180 nM; at CYP2B6 [2] (cotinine formation, nicotine 500 μM, rec CYP2B6 microsomes), 15000 ± 5700 nM; on CYP2A6 [3] (3HC formation) it was 10000 ± 3000 nM; on CYP2A6 [3] (read-out: IC50,u (binding-corrected IC50), 3HC formation, IC50 × fu,inc), 780 ± 230 nM; at CYP2B6 [4] (nornicotine formation, nicotine 100 μM, rec CYP2B6 microsomes), 1400 ± 400 nM. Besides, the IC50 at CYP2B6 [4] (read-out: IC50,u (binding-corrected IC50), nornicotine formation, nicotine 100 μM, rec CYP2B6 microsomes, IC50 × fu,inc) was found to be 110 ± 30 nM; in series [5], 7900 ± 2500 nM. The “decrease of 3HC formation” value on CYP2A6 [3] (1 μM inhibitor) worked out at 45%; on CYP2A6 [3] (10 μM inhibitor), 65%. Further, the “inhibition of nornicotine formation” value is 64% at CYP2B6 [4] (1 μM inhibitor) and 72% at CYP2B6 [4] (10 μM inhibitor). The “inhibitory effect on NOX formation” value against FMO1 and against FMO3 was “No inhibitory effect” throughout.

As to `C=C(C)[C@@H]1CCC(C)=C[C@H]1c1c(O)cc(CCCCC)cc1O` [CBD, cannabidiol], the IC50 on CYP2A6 [1] (IC50, cotinine formation, mean ± SD of three experiments) was found to be 4400 ± 1000 nM; on CYP2A6 [1] (IC50,u (binding-corrected IC50), cotinine formation, IC50 × fu,inc), 270 ± 60 nM; on CYP2B6 [2], 4200 ± 2700 nM; against CYP2A6 [3] (IC50, 3HC formation), 3400 ± 2300 nM; at CYP2A6 [3] (IC50,u (binding-corrected IC50), 3HC formation, IC50 × fu,inc), 210 ± 140 nM; at CYP2B6 [4] (IC50, nornicotine formation, nicotine 100 μM, rec CYP2B6 microsomes), 470 ± 77 nM. The half-inhibitory concentration (IC50) on CYP2B6 [4] (IC50,u (binding-corrected IC50), nornicotine formation, nicotine 100 μM, rec CYP2B6 microsomes, IC50 × fu,inc) is 29 ± 5 nM; in series [5], 5100 ± 1100 nM. In addition, the inhibition at 30 min, 1 µM on CYP2B6 [2] (setting [6]) came to 50%; against CYP2B6 [4] (setting [7]), 75%. Besides, the inhibition at 30 min, 10 µM against CYP2B6 [2] (setting [6]) amounted to 65%; at CYP2B6 [4] (setting [7]), 85%. The “decrease of 3HC formation” value on CYP2A6 [3] (1 μM inhibitor) amounted to 55%; at CYP2A6 [3] (10 μM inhibitor) it was 60%. This compound also displayed an IC50 at 30 min on CYP2B6 [4] (human, microsomes from CYP2B6-overexpressing HEK293 cells, pH 7.4, probe nicotine 100 μM (nornicotine formation), IC50,u (binding-corrected IC50), nornicotine formation, nicotine 100 μM, rec CYP2B6 microsomes, IC50 × fu,inc) of 30 ± 5 nM. The “inhibitory effect on NOX formation” value against FMO1 and against FMO3 was “No inhibitory effect” each time.
